Measurements: patent publication US5371102A, “Compositions and methods of inhibiting thyroid activity” (priority 1993, dated 1994)

Key:
[1] = chemical oxidation stoichiometry of thiones; type: physicochemical
Procedure: Oxidation stoichiometries were determined for the thione compounds MBI, MMBI and DMMBI by incubating the thiones with varying amounts of PBA (0-250μM). The rapid reaction (t1/2 <10 s at 25° C.) of benzimidazole-2-thiones with PBA in methanol provided a convenient method for determining oxidation stoichiometry.
Oxidation stoichiometries were determined spectrophoto, metrically, using a Hewlett Packard 8452A diode array spectrophotometer, by measuring thione concentration at 305 nm as a function of PBA concentration. Hydroperoxide content was determined iodometrically. Stoichiometries of substrate consumption/product formation were also determined by addition of limiting amounts of PBA to 100 μM MBI or MMBI in 50% methanol/pH 7 phosphate. The disappearance of thione and the production of BI, MeBI and bisulfite ion was determined after one hour at 25° C. The production of bisulfite ion was measured […]. The production of sulfate ion was determined by ion chromatography using a AS4A column (Dionex Co., Sunnyvale, CA) with a Dionex Gradient Pump Module and a Dionex CDM II conductivity detector equipped with an AMMS suppressor using 3 mM carbonate/bicarbonate buffer pH 10 as eluant at 2.0 ml/min. Reaction products were also monitored by ^1 H NMR performed at 300 MHz using a Nicolet NT300 or General Electric QE300 spectrometer DSS as a reference.

TPX = molecular target: T1, TPX (Sus scrofa, UniProt P09933); assay: TPX/hydrogen peroxide-catalyzed oxidation of ABTS and guaiacol; type: biochemical, hog
T1 sequence (P09933 15-926): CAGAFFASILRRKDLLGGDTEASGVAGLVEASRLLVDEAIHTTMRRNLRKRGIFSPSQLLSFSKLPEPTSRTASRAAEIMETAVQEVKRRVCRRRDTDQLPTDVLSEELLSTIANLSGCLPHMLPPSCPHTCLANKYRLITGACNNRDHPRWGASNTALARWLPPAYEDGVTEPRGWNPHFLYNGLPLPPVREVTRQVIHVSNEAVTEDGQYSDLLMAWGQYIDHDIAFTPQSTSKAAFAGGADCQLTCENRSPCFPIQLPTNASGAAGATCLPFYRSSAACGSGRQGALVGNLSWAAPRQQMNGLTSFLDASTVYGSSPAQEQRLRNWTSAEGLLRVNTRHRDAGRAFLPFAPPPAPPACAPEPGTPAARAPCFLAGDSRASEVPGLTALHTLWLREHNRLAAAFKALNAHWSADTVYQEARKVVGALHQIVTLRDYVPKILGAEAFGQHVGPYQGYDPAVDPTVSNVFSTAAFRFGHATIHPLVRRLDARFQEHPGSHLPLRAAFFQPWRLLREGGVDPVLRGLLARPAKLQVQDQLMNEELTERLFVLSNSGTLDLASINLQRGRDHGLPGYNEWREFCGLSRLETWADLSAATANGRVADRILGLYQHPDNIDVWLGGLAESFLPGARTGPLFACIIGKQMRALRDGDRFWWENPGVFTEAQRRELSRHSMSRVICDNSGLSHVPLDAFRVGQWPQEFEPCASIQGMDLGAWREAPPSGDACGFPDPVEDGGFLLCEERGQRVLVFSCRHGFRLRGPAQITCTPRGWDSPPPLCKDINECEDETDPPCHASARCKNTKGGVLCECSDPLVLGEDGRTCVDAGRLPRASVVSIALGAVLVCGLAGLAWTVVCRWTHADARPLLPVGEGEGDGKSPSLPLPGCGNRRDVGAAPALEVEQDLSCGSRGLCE
Source text: Materials used in the examples below were obtained from the following sources. Bovine LPX, bovine liver catalase, glucose oxidase, 30% hydrogen peroxide, glucose, guaiacol, ABTS and deuterium oxide were purchased from Sigma Chemical Company. Selenium dioxide, MBI ^13 CH3 I and PBA were purchased from Aldrich Chemical Company and PBA was purified as previously described by Fieset et al., Reagents for Organic Synthesis, Vol. I, pp.135-139, John Wiley and Sons, N.Y. (1967). LPX purity was checked by PAGE, as described by Doerge, D.R., et al. in, Biochem. Pharmacol., Vol.36, pp.972-974 (1986). TPX was purified from hog thyroids obtained from a local slaughterhouse by published procedures. Doerge & Takazowa, Chemical Research in Toxicology, Vol. 3, pp. 98-101 (1990). TPX purity was determined by LC and its concentration determined spectophotometrically. Hydroperoxide concentrations were determined by iodometric titration, as described by Kolthoff, et al., in "Quantitative Chemical Analysis", Macmillan, London, pp.842-860 (1969). MMBI, and BI were synthesized by published procedures as described by Doerge, D.R., Biochem, Vol. 27, pp. 3697-3700 (1988) and were recrystallized from aqueous ethanol. […] PPHP and PPA were prepared, purified and analyzed as previously described by Doerge, Biochem, Vol.27, p.11 (1988). […]

LPX = molecular target: T2, LPX (Bos taurus, UniProt P80025); assay: LPX-mediated oxidative turnover of DMMBI and hydroperoxide; type: biochemical, bovine
T2 construct: purchased Sigma Chemical Company
Source text: Materials used in the examples below were obtained from the following sources. Bovine LPX, bovine liver catalase, glucose oxidase, 30% hydrogen peroxide, glucose, guaiacol, ABTS and deuterium oxide were purchased from Sigma Chemical Company. Selenium dioxide, MBI ^13 CH3 I and PBA were purchased from Aldrich Chemical Company and PBA was purified as previously described by Fieset et al., Reagents for Organic Synthesis, Vol. I, pp.135-139, John Wiley and Sons, N.Y. (1967). LPX purity was checked by PAGE, as described by Doerge, D.R., et al. in, Biochem. Pharmacol., Vol.36, pp.972-974 (1986). TPX was purified from hog thyroids obtained from a local slaughterhouse by published procedures. Doerge & Takazowa, Chemical Research in Toxicology, Vol. 3, pp. 98-101 (1990). TPX purity was determined by LC and its concentration determined spectophotometrically. Hydroperoxide concentrations were determined by iodometric titration, as described by Kolthoff, et al., in "Quantitative Chemical Analysis", Macmillan, London, pp.842-860 (1969). MMBI, and BI were synthesized by published procedures as described by Doerge, D.R., Biochem, Vol. 27, pp. 3697-3700 (1988) and were recrystallized from aqueous ethanol. MeBI was purified by distillation and DMeBI^+ was synthesized and purified by recrystallization from ethyl acetate/methanol. 1-^13 C-MMBI was synthesized from ^13 CH3 I according to the procedure disclosed by Doerge, D.R., in, J. Lab. Comp. and Radiopharm., Vol.25, pp.985-990 (1988). PPHP and PPA were prepared, purified and analyzed as previously described by Doerge, Biochem, Vol.27, p.11 (1988). The methyl ester of 1-methyl-benzimidazole-2-sulfinic acid was prepared by addition of hydrogen peroxide (5 equivalents of a 10 M solution) to MMBI (0.1 M) in methanol. The products, MeBI and the ester, were obtained following preparative TLC on silica (Uniplate, Analtech Co., Newark, DL) using 5% methanol/chloroform as eluant.
The distinct methyl and aromatic proton resonances of DMMBI and DMeBI^+ in the ^1 H-NMR spectrum provide a sensitive method to detect enzymatic transformation of DMMBI. DMMBI (100 μM) was incubated with LPX (50 μM), iodide ion (5 mM) and hydrogen peroxide (300 μM) in 10 mls of 0.01 M phosphate buffer solution, pH 7.0. The solution was incubated at 25° C. for 1 min followed by addition of catalase. The sample was then lyophilized and analyzed by ^1 H-NMR. The solids were dissolved in 1 ml D2 O and lyophilized again. Proton-deuterium exchange was repeated twice more and the solids were dissolved in 0.5 ml D2 O containing DSS. The HOD peak was suppressed in a one pulse presaturation experiment where the HOD peak was irradiated for 2 sec prior to acquisition of sample resonances. The ^1 H-NMR spectra of DMeBI^+ and DMMBI were similarly recorded in D2 O.
PPHP is a chromophoric hydroperoxide interchangeable with hydrogen peroxide in many peroxidase-catalyzed reactions. LPX-catalyzed turnover of PPHP gives PPA, the corresponding alcohol, which can be quantitated by HPLC. The use of PPHP permits a direct correlation of LPX-catalyzed substrate consumption and product formation with actual hydroperoxide turnover.

[2] = PPHP-supported LPX-catalyzed iodination

## Cn1c(=S)n(C)c2ccccc21 [DMMBI, 1,3-dimethylbenzimidazole-2-thione]
[1]; PBA or hydrogen peroxide, aqueous medium, products DMeBI+ and sulfate
  equivalents of oxidant required: 3 equivalents
[1]; PBA, FIG. 4
  moles of oxidant required for total reaction: three
[1]; hydroperoxides
  equivalents of hydroperoxide required per mole of thione: 3 equivalents
TPX
  effect on oxidation of ABTS and guaiacol: does not affect LPX or TPX/hydrogen peroxide-catalyzed oxidation of the substrates ABTS and guaiacol
LPX; LPX, 3 equivalents H2O2 and iodide ion
  conversion of DMMBI to DMeBI+: quantitative conversion of DMMBI to DMeBI^+
LPX; LPX, hydrogen peroxide and iodide ion
  turnover events without LPX inactivation: > 300 turnover events
LPX; [2]
  moles of PPA formed per mole of DMMBI consumed: 3.2 ± 0.2 mol
  moles of PPHP consumed per mole of DMMBI consumed: 3.2 mol
LPX; controls: no iodide ion, no LPX or no hydrogen peroxide
  conversion of DMMBI to DMeBI+: no conversion of DMMBI to DMeBI^+ was observed
